Measured values reported in patent US8383619B2, “Pharmaceutical compounds” (Astex Therapeutics Limited, priority 2008, dated 2013).

Columns and labels:
[1] = Tolerability, four consecutive daily doses; type: in vivo, mouse
[2] = Liver homogenate stability; type: in vitro ADME; conditions: 1 μM, 37° C., 120 mins
Excerpt: (§1) The breakdown of a prodrug in vivo could occur in one or more of several different compartments including for example, but not limited to blood/plasma, liver, stomach, target tissue (e.g. tumour). The preferred location for optimum formation of the parent drug will depend on the disposition in vivo of the pro-drug and parent and an understanding of the optimum concentrations of each required in the circulation to maximise exposure to the active moiety in the target tissue. The potential for pro-drug molecules to deliver the active parent drug may be assessed in vitro by measuring the breakdown of a pro-drug in the presence of relevant body fluids. For the purpose of gaining a preliminary understanding of the stability of compounds of the invention to enzymatic hydrolysis in two such bodily compartments, compound turnover has been studied following incubation in whole blood and liver homogenate from mice and humans. The data obtained from these studies provide a preliminary understanding of which of the prodrugs are better able to deliver parent compound (i.e. are more rapidly broken down to parent compound) in these compartments. Further studies could also determine stability in other compartments (e.g. in the target tumours by measuring stability in tumour lysates).
Mouse livers were obtained from 20 male mice, strain: Balb/c from stock animals. Human liver tissue was obtained from 3 individuals sourced from a UK human tissue bank. The livers were stored frozen. The livers were defrosted and then homogenised to form a homogenate of approximately 30% (w/v) in phosphate buffer, 100 mM, pH 7.4 (referred to as ‘buffer’). Homogenates were kept on ice until use.
(§2) Each incubation consisted of a volume of 1 mL. Test compound dosing solutions were then spiked into each homogenate at a final compound concentration of 1 μM. Incubations were performed in the atmosphere in a shaking water bath at 37° C.
(§3) An aliquot of incubation samples was removed into an equal volume of ice-cold acetonitrile at various time points. Samples (whole blood/homogenate+acetonitrile) were centrifuged and aliquots of the supernatant were analysed by HPLC-MS/MS.
(§4) The compound X (2,4-dihydroxy-5-isopropyl-phenyl)-[5-(4-methyl-piperazin-1-ylmethyl)-1,3-dihydro-isoindol-2-yl]-methanone) and the compounds of Examples 1 to 24 were incubated in both whole blood and liver homogenate by Quotient Bioresearch (Rushden, UK). The percentage remaining of parent compound following incubation in whole blood/liver homogenate from human and mouse are set out in the table below.

Whole blood stability = type: in vitro ADME; conditions: 1 μM, 37° C., 120 mins
Excerpt: as §1
For these studies, human whole blood was collected from 3 male healthy volunteers in lithium heparin tubes. The blood was pooled and stored at room temperature for a maximum of 2 hours prior to initiation of incubations. Mouse blood was collected from 70 male mice, strain: Balb/c into lithium heparin tubes and pooled.
as §2, §3, §4

[3] = Mouse pharmacokinetics, oral gavage; type: in vivo, Balb/c mice; conditions: compared with examples 16 and 11
Protocol: Balb/c mice are dosed with a prodrug by oral gavage. A single administration of one of the 24 examples is given and a dose volume of 10 mL/kg is used for PO doses.
Blood samples are collected in lithium heparin coated tubes at selected time points.
Plasma is isolated by centrifugation and frozen before analysis.
Plasma samples are prepared by liquid-liquid extraction with Acetonitrile containing internal standard. Quantification is by comparison with a standard calibration line constructed with each compound and using a LC-MS/MS method specific to each compound. Animals that had been dosed one of the 24 examples were analysed for prodrug and compound X (2,4-dihydroxy-5-isopropyl-phenyl)-[5-(4-methyl-piperazin-1-ylmethyl)-1,3-dihydro-isoindol-2-yl]-methanone). Pharmacokinetics parameters are calculated using WinNonLin® non compartmental analysis software.
The plasma AUC0.25-2 hrs after PO administration of selected examples are set out in the table below. For examples 16, 17 and 11, plasma AUC0.25-2 hrs was determined following a single dose of 120 μmoles/kg or 240 μmoles/kg.

SMILES	tolerability ([1]; four consecutive daily doses at 240 μmoles/kg)	Percentage remaining Human Liver [2] [%]	Percentage remaining Mouse Liver [2] [%]	Percentage remaining Human blood (Whole blood stability) [%]	Percentage remaining Mouse blood (Whole blood stability) [%]	exposure of the active pharmaceutical agent relative to the starting dose [3]	tolerability ([1]; four consecutive daily doses at 120 μmoles/kg)
CC(C)c1cc(C(=O)N2Cc3ccc(CN4CCN(C)CC4)cc3C2)c(OC(=O)N(C)C)cc1OC(=O)N(C)C [Example 11, dimethyl-carbamic acid 5-dimethylcarbamoyloxy-2-isopropyl-4-[5-(4-methyl-piperazin-1-ylmethyl)-1,3-dihydro-isoindole-2-carbonyl]-phenyl ester]	well tolerated	31	1	93	38	–	–
CC(C)c1cc(C(=O)N2Cc3ccc(CN4CCN(C)CC4)cc3C2)c(OC(=O)N2CCCC2)cc1OC(=O)N1CCCC1 [Example 12, 2-[2,4-bis-(pyrrolidin-1-ylcarbonyloxy)-5-isopropyl-benzoyl]-5-(4-methyl-piperazin-1-ylmethyl)-1,3-dihydro-isoindole]	–	43	1	110	37	–	–
CC(C)c1cc(C(=O)N2Cc3ccc(CN4CCN(C)CC4)cc3C2)c(OC(=O)N2CCOCC2)cc1OC(=O)N1CCOCC1 [Example 13, 2-[2,4-bis-(morpholin-4-ylcarbonyloxy)-5-isopropyl-benzoyl]-5-(4-methyl-piperazin-1-ylmethyl)-1,3-dihydro-isoindole]	–	0	0	76	0	–	–
CC(C)c1cc(C(=O)N2Cc3ccc(CN4CCN(C)CC4)cc3C2)c(O)cc1OC(=O)N(C)C [Example 17, dimethyl-carbamic acid 5-hydroxy-2-isopropyl-4-[5-(4-methyl-piperazin-1-ylmethyl)-1,3-dihydro-isoindole-2-carbonyl]-phenyl ester]	–	0	0	90	24	optimal exposure of the active pharmaceutical agent relative to the starting dose	well tolerated
CC(C)c1cc(C(=O)N2Cc3ccc(CN4CCN(C)CC4)cc3C2)c(OC(=O)N(C)C)cc1O [Example 16, dimethyl-carbamic acid 5-hydroxy-4-isopropyl-2-[5-(4-methyl-piperazin-1-ylmethyl)-1,3-dihydro-isoindole-2-carbonyl]-phenyl ester]	–	73	82	104	91	–	–
COc1cc(O)c(C(=O)N2Cc3ccc(CN4CCN(C)CC4)cc3C2)cc1C(C)C [Example 2, (2-Hydroxy-5-isopropyl-4-methoxy-phenyl)-[5-(4-methyl-piperazin-1-ylmethyl)-1,3-dihydro-isoindol-2-yl]-methanone]	–	85	100	122	129	–	–
